From patent US7928238B2, “1,2,3,4-tetrahydro-quinoline derivatives as CETP inhibitors” (Janssen Pharmaceutica NV, priority 2006, dated 2011)
“And” between values parts separate entries of the source, which are not always exact repeats. Equal values may be shown once.

What was measured:
CETP = target: T1, CETP (Homo sapiens, UniProt P11597); assay: CETP in vitro assay (Amersham kit TRKQ7005; modified protocol in human plasma, [3H]CE-HDL transfer); assay type: biochemical
T1 construct: from tissue; host or cells: human plasma from normal volunteers
T1 sequence (P11597 18-493): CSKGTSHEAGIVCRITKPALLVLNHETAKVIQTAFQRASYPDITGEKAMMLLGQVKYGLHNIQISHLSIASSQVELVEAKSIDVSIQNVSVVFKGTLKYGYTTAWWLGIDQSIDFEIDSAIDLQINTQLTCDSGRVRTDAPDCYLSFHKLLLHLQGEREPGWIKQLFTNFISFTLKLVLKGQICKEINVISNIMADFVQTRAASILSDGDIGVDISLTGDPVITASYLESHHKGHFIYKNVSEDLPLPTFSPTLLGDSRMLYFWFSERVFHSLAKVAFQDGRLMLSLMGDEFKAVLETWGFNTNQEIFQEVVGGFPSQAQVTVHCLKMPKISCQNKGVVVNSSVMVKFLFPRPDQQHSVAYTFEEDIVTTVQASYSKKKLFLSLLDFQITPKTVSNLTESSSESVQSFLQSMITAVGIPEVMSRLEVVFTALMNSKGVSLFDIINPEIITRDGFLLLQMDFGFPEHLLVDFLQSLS
Summary of the method: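 IC50 values were derived by plotting % of vehicle control against compound concentration. Transfer was quantified by counting supernatant radioactivity after Dextralip/MgCl2 precipitation. Compound, human plasma and [3H]CE-HDL (about 25 μg/ml, as added) were incubated 4 h or more at 37 °C, with a 4 °C plate as the non-specific blank.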

cholesterol-fed hamsters = assay: CETP in vivo assay: lipid parameters in cholesterol-fed hamsters; conditions: plasma, mean ± SEM, n = 8
Protocol: To determine the in vivo efficacy of a test compound, hamsters were first fed a moderately high cholesterol diet (Research Diets, D5012801) for two weeks before commencing treatment. The animals were orally gavaged with the vehicle (10% solutol, 5% ethanol, 85% D5W) and test compound for 5 days with the last dose being administered 2 hrs before sacrifice. Plasma was obtained and lipid parameters were measured.

[1] = particularly in combination with Atorvastatin; cited from earlier work
[2] = clinical studies; cited from earlier work
[3] = tested on: rabbits had severe hypercholesterolemia; conditions: rabbits with severe hypercholesterolemia; cited from earlier work
rabbits = conditions: 30 mg/kg; cited from earlier work
[4] = 10 mg/kg oral gavage for 5 days
[5] = 30 mg/kg oral gavage for 5 days

For `O[C@@H](CN1c2cccc(-c3cccc(OC(F)(F)F)c3)c2CC[C@@H]1c1cccc(OC(F)(F)C(F)F)c1)C(F)(F)F` [Compound 78, (S)-1,1,1-trifluoro-3-((R)-2-(3-(1,1,2,2-tetrafluoroethoxy)phenyl)-5-(3-(trifluoromethoxy)phenyl)-3,4-dihydroquinolin-1 (2H)-yl)propan-2-ol], the “% Inhibition @ 1 μM” value (CETP; 1 μM compound, 1 µM) was 79%, the inhibition at 1 µM (CETP; 1 μM compound, read-out: % Inhibition @ 1 μM) was 85% and the IC50 (CETP; from plots of % control versus compound concentration) was 34 nM and 44 nM. The “HDL-C” value (cholesterol-fed hamsters; 3 mg/kg oral gavage for 5 days, last dose 2 hrs before sacrifice) was 96.2 ± 4.9 mg/dL, the HDL-C/LDL-C (cholesterol-fed hamsters; 3 mg/kg oral gavage for 5 days) was 3.1 ± 0.2 and the “LDL-C” value (cholesterol-fed hamsters; 3 mg/kg oral gavage for 5 days) was 31.6 ± 1.9 mg/dL. For the same molecule, the “Total Cholesterol” value (cholesterol-fed hamsters; 3 mg/kg oral gavage for 5 days) was 149.3 ± 7.7 mg/dL, the “Triglycerides” value (cholesterol-fed hamsters; 3 mg/kg oral gavage for 5 days) was 217.7 ± 18.1 mg/dL and the “HDL-C” value (cholesterol-fed hamsters; [4]) was 117.9 ± 2.9 mg/dL. The HDL-C/LDL-C (cholesterol-fed hamsters; [4]) was 4.3 ± 0.3, the “LDL-C” value (cholesterol-fed hamsters; [4]) was 28.1 ± 1.8 mg/dL and the “Total Cholesterol” value (cholesterol-fed hamsters; [4]) was 178.5 ± 5.4 mg/dL. The “Triglycerides” value (cholesterol-fed hamsters; [4]) was 325.6 ± 24.3 mg/dL, the “HDL-C” value (cholesterol-fed hamsters; [5]) was 121.4 ± 2.5 mg/dL and the HDL-C/LDL-C (cholesterol-fed hamsters; [5]) was 4.6 ± 0.4. The “LDL-C” value (cholesterol-fed hamsters; [5]) was 27.9 ± 2.5 mg/dL, the “Total Cholesterol” value (cholesterol-fed hamsters; [5]) was 188.4 ± 9.2 mg/dL and the “Triglycerides” value (cholesterol-fed hamsters; [5]) was 350.8 ± 10.9 mg/dL.
For `CCOC(=O)N1c2ccc(C(F)(F)F)cc2[C@@H](N(Cc2cc(C(F)(F)F)cc(C(F)(F)F)c2)C(=O)OC)C[C@H]1CC` [Torcetrapib], the “results in Phase II trials” value [1] is given as “positive results in Phase II trials”.
In the case of `CCC(CC)CC1(C(=O)Nc2ccccc2SC(=O)C(C)C)CCCCC1` [JTT-705], the HDL-C [2] is listed as “raise HDL-C”, the LDL-C [2] is listed as “modestly lower LDL-C” and the triglyceride levels [2] is listed as “not alter triglyceride levels”. For the same molecule, the lesion development [3] was “not efficacious in preventing lesion development”, the plasma triglycerides [3] was “significant elevations of plasma triglycerides” and the CETP activity (rabbits) was “inhibited CETP activity”. For the same molecule, the “increased HDL-C” value (rabbits) was “+90%”, the reduced lesion size (rabbits) was −70% and the “reduced non-HDL-C cholesterol” value (rabbits) was −50%.
